Measurements published in the NIST ThermoML archive (doi:10.1016/j.jct.2017.04.007).
± gives the expanded uncertainty stated by the source.

Settings: Liquid; for speed of sound: Frequency=3 MHz, Pulse-echo method; for mass density: Vibrating tube method

CCOC(F)(C(F)(F)C(F)(F)C(F)(F)F)C(F)(C(F)(F)F)C(F)(F)F (configuration not stated) [2-trifluoromethyl-3-ethoxydodecafluorohexane]
Settings | mass density [kg/m3] | speed of sound [m/s]
293.15 K, 100 kPa | 1630.2 ± 0.7 | 673.7 ± 1.6
293.15 K, 10000 kPa | 1654 ± 0.9 | –
293.15 K, 20000 kPa | 1674.8 ± 1.1 | 781.1 ± 1.7
293.15 K, 30000 kPa | 1693.3 ± 1.3 | –
293.15 K, 40000 kPa | 1709.8 ± 1.6 | 865.8 ± 1.9
293.15 K, 50000 kPa | 1724.9 ± 1.9 | –
293.15 K, 60000 kPa | 1738.8 ± 2.2 | 938.1 ± 2
293.15 K, 70000 kPa | 1751.7 ± 2.5 | –
293.15 K, 80000 kPa | 1763.9 ± 2.9 | 1001.8 ± 2.2
293.15 K, 90000 kPa | 1775.4 ± 3.2 | –
293.15 K, 100000 kPa | 1786.2 ± 3.5 | 1058 ± 2.3
293.15 K, 110000 kPa | 1796.5 ± 3.9 | –
293.15 K, 120000 kPa | 1806.3 ± 4.3 | –
293.15 K, 130000 kPa | 1815.8 ± 4.6 | –
293.15 K, 140000 kPa | 1824.9 ± 5 | –
303.15 K, 100 kPa | 1609.7 ± 0.7 | 643.7 ± 1.5
303.15 K, 10000 kPa | 1635.5 ± 0.9 | –
303.15 K, 20000 kPa | 1657.8 ± 1 | 755.3 ± 1.7
303.15 K, 30000 kPa | 1677.3 ± 1.3 | –
303.15 K, 40000 kPa | 1694.6 ± 1.5 | 842.8 ± 1.9
303.15 K, 50000 kPa | 1710.4 ± 1.8 | –
303.15 K, 60000 kPa | 1724.9 ± 2.2 | 916.9 ± 2
303.15 K, 70000 kPa | 1738.4 ± 2.5 | –
303.15 K, 80000 kPa | 1750.9 ± 2.8 | 981.3 ± 2.1
303.15 K, 90000 kPa | 1762.8 ± 3.1 | –
303.15 K, 100000 kPa | 1773.9 ± 3.5 | 1038.5 ± 2.2
303.15 K, 110000 kPa | 1784.5 ± 3.8 | –
303.15 K, 120000 kPa | 1794.5 ± 4.2 | –
303.15 K, 130000 kPa | 1804.2 ± 4.6 | –
303.15 K, 140000 kPa | 1813.4 ± 4.9 | –
313.15 K, 100 kPa | 1588.6 ± 0.7 | 616.7 ± 1.5
313.15 K, 10000 kPa | 1616.6 ± 0.9 | –
313.15 K, 20000 kPa | 1640.2 ± 1 | 732.2 ± 1.7
313.15 K, 30000 kPa | 1660.7 ± 1.2 | –
313.15 K, 40000 kPa | 1678.9 ± 1.5 | 822 ± 1.8
313.15 K, 50000 kPa | 1695.4 ± 1.8 | –
313.15 K, 60000 kPa | 1710.5 ± 2.1 | 897.4 ± 2
313.15 K, 70000 kPa | 1724.6 ± 2.4 | –
313.15 K, 80000 kPa | 1737.1 ± 2.8 | 963 ± 2.1
313.15 K, 90000 kPa | 1749.7 ± 3.1 | –
313.15 K, 100000 kPa | 1761.2 ± 3.4 | 1021.7 ± 2.2
313.15 K, 110000 kPa | 1772.2 ± 3.8 | –
313.15 K, 120000 kPa | 1782.5 ± 4.1 | –
313.15 K, 130000 kPa | 1792.5 ± 4.5 | –
313.15 K, 140000 kPa | 1802 ± 4.9 | –
323.15 K, 100 kPa | 1567.3 ± 0.7 | 588.4 ± 1.4
323.15 K, 10000 kPa | 1597.6 ± 0.8 | –
323.15 K, 20000 kPa | 1622.7 ± 1 | 709.6 ± 1.6
323.15 K, 30000 kPa | 1644.3 ± 1.2 | –
323.15 K, 40000 kPa | 1663.4 ± 1.5 | 802.1 ± 1.8
323.15 K, 50000 kPa | 1680.6 ± 1.8 | –
323.15 K, 60000 kPa | 1696.4 ± 2.1 | 878.6 ± 1.9
323.15 K, 70000 kPa | 1710.9 ± 2.4 | –
323.15 K, 80000 kPa | 1724.2 ± 2.7 | 945.6 ± 2
323.15 K, 90000 kPa | 1736.8 ± 3 | –
323.15 K, 100000 kPa | 1748.7 ± 3.4 | 1004.9 ± 2.2
323.15 K, 110000 kPa | 1760 ± 3.7 | –
323.15 K, 120000 kPa | 1770.6 ± 4.1 | –
323.15 K, 130000 kPa | 1780.7 ± 4.4 | –
323.15 K, 140000 kPa | 1790.5 ± 4.8 | –
333.15 K, 100 kPa | 1545.6 ± 0.7 | 561.4 ± 1.4
333.15 K, 10000 kPa | 1578.4 ± 0.8 | –
333.15 K, 20000 kPa | 1605.3 ± 1 | 688.4 ± 1.6
333.15 K, 30000 kPa | 1628.1 ± 1.2 | –
333.15 K, 40000 kPa | 1648.2 ± 1.5 | 783.3 ± 1.7
333.15 K, 50000 kPa | 1666.2 ± 1.7 | –
333.15 K, 60000 kPa | 1682.6 ± 2 | 861.5 ± 1.9
333.15 K, 70000 kPa | 1697.7 ± 2.3 | –
333.15 K, 80000 kPa | 1711.6 ± 2.7 | 929.1 ± 2
333.15 K, 90000 kPa | 1724.6 ± 3 | –
333.15 K, 100000 kPa | 1736.9 ± 3.3 | 989.3 ± 2.1
333.15 K, 110000 kPa | 1748.2 ± 3.7 | –
333.15 K, 120000 kPa | 1759.3 ± 4 | –
333.15 K, 130000 kPa | 1769.7 ± 4.4 | –
333.15 K, 140000 kPa | 1779.5 ± 4.7 | –
343.15 K, 100 kPa | 1523.6 ± 0.7 | 534.8 ± 1.3
343.15 K, 10000 kPa | 1559.1 ± 0.8 | –
343.15 K, 20000 kPa | 1587.8 ± 1 | 667.7 ± 1.5
343.15 K, 30000 kPa | 1611.9 ± 1.2 | –
343.15 K, 40000 kPa | 1633 ± 1.4 | 765 ± 1.7
343.15 K, 50000 kPa | 1651.7 ± 1.7 | –
343.15 K, 60000 kPa | 1668.7 ± 2 | 844.9 ± 1.8
343.15 K, 70000 kPa | 1684.2 ± 2.3 | –
343.15 K, 80000 kPa | 1698.6 ± 2.6 | 913.5 ± 2
343.15 K, 90000 kPa | 1712 ± 2.9 | –
343.15 K, 100000 kPa | 1724.4 ± 3.3 | 974 ± 2.1
343.15 K, 110000 kPa | 1736.5 ± 3.6 | –
343.15 K, 120000 kPa | 1747.8 ± 4 | –
343.15 K, 130000 kPa | 1758.4 ± 4.3 | –
343.15 K, 140000 kPa | 1768.6 ± 4.7 | –
353.15 K, 100 kPa | 1501.6 ± 0.7 | 509 ± 1.3
353.15 K, 10000 kPa | 1540 ± 0.8 | –
353.15 K, 20000 kPa | 1570.5 ± 1 | 647.6 ± 1.6
353.15 K, 30000 kPa | 1596 ± 1.2 | –
353.15 K, 40000 kPa | 1618 ± 1.4 | 747.5 ± 1.7
353.15 K, 50000 kPa | 1637.6 ± 1.7 | –
353.15 K, 60000 kPa | 1655.2 ± 2 | 828.9 ± 1.8
353.15 K, 70000 kPa | 1671.3 ± 2.3 | –
353.15 K, 80000 kPa | 1686.2 ± 2.6 | 898.5 ± 2
353.15 K, 90000 kPa | 1700 ± 2.9 | –
353.15 K, 100000 kPa | 1712.9 ± 3.2 | 960.3 ± 2.1
353.15 K, 110000 kPa | 1724.9 ± 3.6 | –
353.15 K, 120000 kPa | 1736.6 ± 3.9 | –
353.15 K, 130000 kPa | 1747.4 ± 4.2 | –
353.15 K, 140000 kPa | 1757.8 ± 4.6 | –
363.15 K, 100 kPa | 1478.1 ± 0.8 | –
363.15 K, 10000 kPa | 1520.4 ± 0.8 | –
363.15 K, 20000 kPa | 1553 ± 0.9 | –
363.15 K, 30000 kPa | 1579.9 ± 1.1 | –
363.15 K, 40000 kPa | 1603 ± 1.4 | –
363.15 K, 50000 kPa | 1623.4 ± 1.6 | –
363.15 K, 60000 kPa | 1641.7 ± 1.9 | –
363.15 K, 70000 kPa | 1658.3 ± 2.2 | –
363.15 K, 80000 kPa | 1673.6 ± 2.5 | –
363.15 K, 90000 kPa | 1687.9 ± 2.8 | –
363.15 K, 100000 kPa | 1701.2 ± 3.2 | –
363.15 K, 110000 kPa | 1713.7 ± 3.5 | –
363.15 K, 120000 kPa | 1725.3 ± 3.8 | –
363.15 K, 130000 kPa | 1736.6 ± 4.2 | –
363.15 K, 140000 kPa | 1747.3 ± 4.5 | –
373.15 K, 100 kPa | 1454.4 ± 0.8 | –
373.15 K, 10000 kPa | 1500.9 ± 0.8 | –
373.15 K, 20000 kPa | 1535.8 ± 0.9 | –
373.15 K, 30000 kPa | 1564.2 ± 1.1 | –
373.15 K, 40000 kPa | 1588.4 ± 1.3 | –
373.15 K, 50000 kPa | 1609.6 ± 1.6 | –
373.15 K, 60000 kPa | 1628.5 ± 1.9 | –
373.15 K, 70000 kPa | 1645.8 ± 2.2 | –
373.15 K, 80000 kPa | 1661.7 ± 2.5 | –
373.15 K, 90000 kPa | 1676.4 ± 2.8 | –
373.15 K, 100000 kPa | 1689.9 ± 3.1 | –
373.15 K, 110000 kPa | 1702.8 ± 3.4 | –
373.15 K, 120000 kPa | 1714.7 ± 3.8 | –
373.15 K, 130000 kPa | 1726.2 ± 4.1 | –
373.15 K, 140000 kPa | 1737.1 ± 4.5 | –
383.15 K, 100 kPa | 1430.4 ± 0.8 | –
383.15 K, 10000 kPa | 1481.2 ± 0.8 | –
383.15 K, 20000 kPa | 1518.4 ± 0.9 | –
383.15 K, 30000 kPa | 1548.4 ± 1.1 | –
383.15 K, 40000 kPa | 1573.8 ± 1.3 | –
383.15 K, 50000 kPa | 1595.9 ± 1.6 | –
383.15 K, 60000 kPa | 1615.5 ± 1.8 | –
383.15 K, 70000 kPa | 1633.3 ± 2.1 | –
383.15 K, 80000 kPa | 1649.6 ± 2.4 | –
383.15 K, 90000 kPa | 1664.6 ± 2.8 | –
383.15 K, 100000 kPa | 1678.5 ± 3.1 | –
383.15 K, 110000 kPa | 1691.6 ± 3.4 | –
383.15 K, 120000 kPa | 1704 ± 3.7 | –
383.15 K, 130000 kPa | 1715.7 ± 4.1 | –
383.15 K, 140000 kPa | 1726.8 ± 4.4 | –
393.15 K, 100 kPa | 1405.6 ± 0.8 | –
393.15 K, 10000 kPa | 1461.3 ± 0.9 | –
393.15 K, 20000 kPa | 1500.9 ± 0.9 | –
393.15 K, 30000 kPa | 1532.5 ± 1.1 | –
393.15 K, 40000 kPa | 1559 ± 1.3 | –
393.15 K, 50000 kPa | 1581.9 ± 1.5 | –
393.15 K, 60000 kPa | 1602.2 ± 1.8 | –
393.15 K, 70000 kPa | 1620.6 ± 2.1 | –
393.15 K, 80000 kPa | 1637.1 ± 2.4 | –
393.15 K, 90000 kPa | 1652.8 ± 2.7 | –
393.15 K, 100000 kPa | 1667.1 ± 3 | –
393.15 K, 110000 kPa | 1680.5 ± 3.3 | –
393.15 K, 120000 kPa | 1693.2 ± 3.7 | –
393.15 K, 130000 kPa | 1705.1 ± 4 | –
393.15 K, 140000 kPa | 1716.3 ± 4.3 | –
